Test results reported in ChEMBL document CHEMBL1201862, “PubChem BioAssay data set” (2004).
Active and inactive are the calls of the source.

What was measured:
[1] = biological target: T1, Corticotropin-releasing factor receptor 2/Corticotropin-releasing factor-binding protein (Homo sapiens, UniProt P24387+Q13324); test: Dose Response confirmation of uHTS hits for small molecule antagonists of the CRF-binding protein and CRF-R2 receptor complex.; format: functional; details: read-out: IC50_Mean
T1 sequence (Q13324 whole entry): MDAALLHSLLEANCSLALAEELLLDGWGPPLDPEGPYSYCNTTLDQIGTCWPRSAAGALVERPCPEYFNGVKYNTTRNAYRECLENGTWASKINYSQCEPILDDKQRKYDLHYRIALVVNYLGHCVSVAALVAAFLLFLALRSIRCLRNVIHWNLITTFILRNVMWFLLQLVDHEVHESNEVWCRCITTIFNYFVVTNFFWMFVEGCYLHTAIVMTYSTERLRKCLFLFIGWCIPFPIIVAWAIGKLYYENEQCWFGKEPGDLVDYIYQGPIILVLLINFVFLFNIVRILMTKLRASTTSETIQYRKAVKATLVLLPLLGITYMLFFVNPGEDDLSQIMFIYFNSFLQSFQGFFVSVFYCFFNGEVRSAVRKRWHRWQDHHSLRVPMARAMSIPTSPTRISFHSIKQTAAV
T1 sequence (P24387 whole entry): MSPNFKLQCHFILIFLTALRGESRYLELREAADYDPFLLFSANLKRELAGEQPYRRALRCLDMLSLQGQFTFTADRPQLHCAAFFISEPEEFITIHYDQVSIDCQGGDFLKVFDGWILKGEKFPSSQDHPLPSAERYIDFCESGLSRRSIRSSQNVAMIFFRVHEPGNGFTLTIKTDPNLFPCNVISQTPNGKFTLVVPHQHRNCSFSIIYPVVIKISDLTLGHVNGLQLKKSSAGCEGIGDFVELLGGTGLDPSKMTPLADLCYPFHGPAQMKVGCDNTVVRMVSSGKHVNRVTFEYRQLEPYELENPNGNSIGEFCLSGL

[2] = biological target: Glyceraldehyde-3-phosphate dehydrogenase (Homo sapiens, UniProt P04406)
Chain of Glyceraldehyde-3-phosphate dehydrogenase (P04406 whole entry): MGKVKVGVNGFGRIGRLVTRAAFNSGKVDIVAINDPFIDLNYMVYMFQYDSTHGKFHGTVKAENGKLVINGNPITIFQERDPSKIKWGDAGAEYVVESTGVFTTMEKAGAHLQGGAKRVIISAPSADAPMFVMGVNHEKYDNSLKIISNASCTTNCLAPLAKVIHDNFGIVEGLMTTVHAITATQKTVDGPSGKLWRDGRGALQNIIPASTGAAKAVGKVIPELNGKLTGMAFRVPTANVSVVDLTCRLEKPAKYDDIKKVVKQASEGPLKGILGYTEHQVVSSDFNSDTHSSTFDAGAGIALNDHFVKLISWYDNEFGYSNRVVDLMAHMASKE

[3] = biological target: T2, Alkaline phosphatase, tissue-nonspecific isozyme (Homo sapiens, UniProt P05186); test: potency against alkaline phosphatase TNAP – biochemical, luminescent, dose response, SAR follow-up (AID 1056)
T2 sequence (P05186 whole entry): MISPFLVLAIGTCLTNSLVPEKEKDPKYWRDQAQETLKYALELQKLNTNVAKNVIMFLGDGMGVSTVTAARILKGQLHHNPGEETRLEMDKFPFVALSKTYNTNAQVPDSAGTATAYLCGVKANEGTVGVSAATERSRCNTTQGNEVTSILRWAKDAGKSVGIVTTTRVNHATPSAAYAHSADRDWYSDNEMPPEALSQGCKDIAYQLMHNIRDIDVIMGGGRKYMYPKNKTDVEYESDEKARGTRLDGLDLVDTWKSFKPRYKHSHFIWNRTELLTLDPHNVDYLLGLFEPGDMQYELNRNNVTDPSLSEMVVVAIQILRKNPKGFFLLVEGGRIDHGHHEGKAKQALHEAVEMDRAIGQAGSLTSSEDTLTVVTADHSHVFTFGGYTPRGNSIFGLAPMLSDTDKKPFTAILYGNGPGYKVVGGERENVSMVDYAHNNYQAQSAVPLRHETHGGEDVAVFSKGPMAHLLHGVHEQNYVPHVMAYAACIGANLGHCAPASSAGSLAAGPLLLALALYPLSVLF

[4] = biological target: T1, Corticotropin-releasing factor receptor 2/Corticotropin-releasing factor-binding protein; test: activators of CRF receptor 2 with binding protein – uHTS hits, confirmation (AID 602473); format: functional; details: read-out: EC50_Mean
[5] = biological target: T3, Mannose-6-phosphate isomerase (Homo sapiens, UniProt P34949); test: MPI inhibition at elevated mannose 6-phosphate – biochemical, fluorescence intensity, high mannose 6-phosphate, primary screen (AID 1220)
T3 sequence (P34949 whole entry): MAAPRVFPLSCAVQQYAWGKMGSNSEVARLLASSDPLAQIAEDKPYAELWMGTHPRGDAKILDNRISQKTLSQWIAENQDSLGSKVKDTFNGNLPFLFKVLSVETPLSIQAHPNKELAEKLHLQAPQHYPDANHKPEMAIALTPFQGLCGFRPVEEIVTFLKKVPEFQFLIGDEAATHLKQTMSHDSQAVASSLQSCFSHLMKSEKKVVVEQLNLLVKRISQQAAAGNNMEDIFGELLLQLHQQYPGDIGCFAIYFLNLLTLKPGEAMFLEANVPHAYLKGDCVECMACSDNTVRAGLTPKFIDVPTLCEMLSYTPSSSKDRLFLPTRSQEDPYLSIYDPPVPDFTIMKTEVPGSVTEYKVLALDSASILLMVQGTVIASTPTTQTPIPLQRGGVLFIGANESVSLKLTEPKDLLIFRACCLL

cells [6] = format: functional, cell-based
cells [7] = format: functional, cell-based; remark: listed apart in the source
[8] = loss of viability in HepG2 cells – cell-based, CellTiter-Glo, cherry-picked, cytotoxicity control for Shn3 inhibitor project, dose response (AID 624134); format: functional
[9] = biological target: T4, Replicative DNA helicase DnaB (Mycobacterium tuberculosis, UniProt P9WMR3); test: DnaB intein splicing inhibitors, dose response, biochemical, cell-free fluorescence (AID 449749); format: functional
T4 sequence (P9WMR3 whole entry): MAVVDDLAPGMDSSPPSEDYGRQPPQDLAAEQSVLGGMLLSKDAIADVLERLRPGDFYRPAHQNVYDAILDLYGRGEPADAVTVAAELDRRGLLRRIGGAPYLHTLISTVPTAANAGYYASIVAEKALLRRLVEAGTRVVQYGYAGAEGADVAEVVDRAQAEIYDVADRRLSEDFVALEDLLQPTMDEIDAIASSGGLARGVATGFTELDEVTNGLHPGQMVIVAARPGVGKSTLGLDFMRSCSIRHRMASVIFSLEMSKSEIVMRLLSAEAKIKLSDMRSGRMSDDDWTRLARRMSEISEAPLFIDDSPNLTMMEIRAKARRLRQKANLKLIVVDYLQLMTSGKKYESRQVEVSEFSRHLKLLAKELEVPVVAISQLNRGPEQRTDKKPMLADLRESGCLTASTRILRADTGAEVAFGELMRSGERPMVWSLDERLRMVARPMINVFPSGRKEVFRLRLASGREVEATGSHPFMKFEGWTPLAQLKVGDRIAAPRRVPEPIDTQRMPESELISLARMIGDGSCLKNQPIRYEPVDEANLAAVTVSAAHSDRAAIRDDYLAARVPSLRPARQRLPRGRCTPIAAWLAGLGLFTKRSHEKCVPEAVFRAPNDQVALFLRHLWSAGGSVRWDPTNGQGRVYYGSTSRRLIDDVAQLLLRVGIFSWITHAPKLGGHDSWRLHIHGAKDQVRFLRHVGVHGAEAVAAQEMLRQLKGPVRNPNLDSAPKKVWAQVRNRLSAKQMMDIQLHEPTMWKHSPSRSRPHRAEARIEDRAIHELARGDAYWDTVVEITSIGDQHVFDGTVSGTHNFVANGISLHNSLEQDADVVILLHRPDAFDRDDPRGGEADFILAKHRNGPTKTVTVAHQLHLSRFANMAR

[10] = reduction of Shn3 3'UTR-driven luciferase in osteoblasts – cell-based, Clone20 osteoblasts, firefly luciferase, cherry-picked, dose response (AID 624132); format: functional;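 note: firefly luciferase luminescence from reporter carrying the Shn3 3'UTR in osteoblasts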
[11] = non-specific 3'UTR reporter inhibition in Clone20-Shn3RL – cell-based, Renilla luciferase, cherry-picked, counter-screen for Shn3 inhibitor project, dose response (AID 624133); format: functional
Protein RecA = biological target: T5, Protein RecA (Mycobacterium tuberculosis, UniProt P9WHJ3); test: Fluorescence Cell-Free Homogeneous Dose Retest to Identify Inhibitors of RecA-Intein Splicing Activity. [Related pubchem assays (depositor defined):AID2097, AID2223, AID489010, AID492950]; format: functional
T5 sequence (P9WHJ3 whole entry): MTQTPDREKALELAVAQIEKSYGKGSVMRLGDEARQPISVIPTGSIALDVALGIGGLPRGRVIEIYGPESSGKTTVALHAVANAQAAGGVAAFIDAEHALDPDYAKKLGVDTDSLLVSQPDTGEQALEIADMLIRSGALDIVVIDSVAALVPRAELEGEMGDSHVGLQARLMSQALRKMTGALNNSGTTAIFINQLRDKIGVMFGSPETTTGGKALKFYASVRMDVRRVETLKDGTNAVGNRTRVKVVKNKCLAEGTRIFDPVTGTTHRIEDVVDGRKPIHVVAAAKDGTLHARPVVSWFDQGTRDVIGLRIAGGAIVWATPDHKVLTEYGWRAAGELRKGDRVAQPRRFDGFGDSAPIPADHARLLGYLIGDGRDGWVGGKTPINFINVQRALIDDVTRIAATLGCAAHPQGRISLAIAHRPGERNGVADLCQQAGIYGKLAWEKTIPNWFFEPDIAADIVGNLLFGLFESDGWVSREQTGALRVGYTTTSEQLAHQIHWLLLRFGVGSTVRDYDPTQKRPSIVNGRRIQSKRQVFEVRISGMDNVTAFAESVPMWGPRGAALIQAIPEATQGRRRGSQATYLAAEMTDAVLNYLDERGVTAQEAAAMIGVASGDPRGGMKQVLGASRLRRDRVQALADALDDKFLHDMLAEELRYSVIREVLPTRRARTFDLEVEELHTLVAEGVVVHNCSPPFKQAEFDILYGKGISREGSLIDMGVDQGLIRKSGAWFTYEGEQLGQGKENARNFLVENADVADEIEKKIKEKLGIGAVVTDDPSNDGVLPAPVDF

[12] = intracellular Trypanosoma cruzi inhibitors in host cells – cell-based, plate reader, cherry-pick samples, set 3, dose response (AID 651818); format: functional;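 note: compounds incubated with infected cells for about four days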
[13] = biological target: T6, Rac GTPase-activating protein 1 (Homo sapiens, UniProt Q9H0H5); test: blockers of MgcRacGAP-driven Rac1 GTP hydrolysis – biochemical, ADP Hunter fluorescence, primary and confirmatory, confirmation (AID 624330); format: functional
T6 sequence (Q9H0H5 whole entry): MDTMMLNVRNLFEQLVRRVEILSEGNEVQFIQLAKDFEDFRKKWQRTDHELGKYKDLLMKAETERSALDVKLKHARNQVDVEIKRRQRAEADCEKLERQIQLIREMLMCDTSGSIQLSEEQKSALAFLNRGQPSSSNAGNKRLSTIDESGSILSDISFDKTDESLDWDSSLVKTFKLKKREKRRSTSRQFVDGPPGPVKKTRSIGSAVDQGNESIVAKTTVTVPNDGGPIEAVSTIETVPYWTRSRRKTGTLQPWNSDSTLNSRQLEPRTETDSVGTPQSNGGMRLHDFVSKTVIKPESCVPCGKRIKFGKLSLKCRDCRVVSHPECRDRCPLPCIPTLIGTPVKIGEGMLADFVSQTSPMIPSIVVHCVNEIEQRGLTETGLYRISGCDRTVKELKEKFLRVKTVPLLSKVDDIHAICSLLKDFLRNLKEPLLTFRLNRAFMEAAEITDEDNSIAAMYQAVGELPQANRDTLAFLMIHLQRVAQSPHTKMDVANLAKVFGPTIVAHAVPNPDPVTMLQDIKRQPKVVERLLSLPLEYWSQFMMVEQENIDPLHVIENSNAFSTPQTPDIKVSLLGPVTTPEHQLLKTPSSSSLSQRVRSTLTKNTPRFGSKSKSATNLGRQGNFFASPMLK

SMILES: CCCSc1nnc(NC(C)=O)[nH]1
- IC50 [1]: > 47.1 µM (inactive)
- IC50 [2]: > 10 µM (inconclusive)
- IC50 [3]: 0.449 µM (active)
- EC50 [4]: > 53 µM (inactive)

SMILES: Cn1cccc1/C=C1\CCc2ccccc2C1=O
- IC50 [5]: > 50 µM (not active)

SMILES: Cc1ccc(-n2nc3c(=O)n(CC(=O)NCc4ccccc4)nc(C)c3c2C)cc1
- EC50 (cells [6]): > 350 µM (not active)
- EC50 (cells [7]): > 350 µM (not active)

SMILES: c1cncc(Cn2ccnc2)c1
- IC50 [2]: > 100 µM (not active)
- IC50 [3]: > 100 µM (inactive)

SMILES: OCCC1CN(Cc2c(O)ccc3ccccc23)CCN1CCc1ccccc1 (stereo not drawn)
- IC50 [5]: > 50 µM (not active)

SMILES: CCC1CCc2sc(C(=O)NCc3ccccn3)cc2C1 (stereo not drawn)
- EC50 (cells [6]): 52.4 µM (active)
- EC50 (cells [7]): > 350 µM (not active)

SMILES: O=C1C(Cl)=C(N2CCN(c3ncccn3)CC2)C(=O)N1c1cccc(C(F)(F)F)c1
- IC50 [2]: > 50 µM (inconclusive)

SMILES: COc1ccc(OC)c(S(=O)(=O)Nc2ccc[nH]c2=O)c1
- IC50 [2]: > 100 µM (not active)
- IC50 [3]: 6.32 µM (active)

SMILES: COc1ccccc1-c1cc(C(F)(F)F)nc(S(=O)(=O)CCCC(=O)N2CCCCC2C)n1 (stereo not drawn)
- AC50 [8]: 25.7 µM (active)
- AC50 [9]: 1.97 µM (active)
- AC50 [10]: 2.65 µM (active)
- EC50 (cells [6]): > 350 µM (not active)
- AC50 [11]: 8.84 µM (active)
- EC50 (Protein RecA): 3.11 µM (active)
- EC50 (cells [7]): > 350 µM (not active)

SMILES: Cc1cc(N2CCOCC2)nc2ccc(NC(=S)N3CCCCC3C)cc12 (stereo not drawn)
- IC50 [5]: > 50 µM (not active)

SMILES: CC(=O)Nc1nnc(SCCc2ccccc2)[nH]1
- IC50 [2]: > 100 µM (not active)
- IC50 [3]: > 100 µM (inactive)

SMILES: COc1cc(NC(c2ccccc2)c2ccccc2)cc(OC)c1OC
- IC50 [5]: > 50 µM (not active)

SMILES: C[C@H]1CN([C@@H](C)CO)C(=O)c2cc(NC(=O)Nc3cccc4ccccc34)ccc2O[C@H]1CN(C)Cc1ccc(Cl)c(Cl)c1
- AC50 [12]: 5.7 µM (active)

SMILES: C[C@@H]1CN([C@H](C)CO)C(=O)Cc2cc(NC(=O)Nc3ccc(F)cc3)ccc2O[C@@H]1CN(C)Cc1ccc(C(=O)Nc2ccccc2N)cc1
- AC50 [12]: 2.04 µM (active)

SMILES: COc1ccc(S(=O)(=O)Nc2ccc3c(c2)C(=O)N([C@@H](C)CO)C[C@H](C)[C@H](CN(C)Cc2ccc(Oc4ccccc4)cc2)O3)cc1
- AC50 [12]: 1.94 µM (active)

SMILES: C[C@@H]1CN([C@@H](C)CO)C(=O)c2cccc(NC(=O)c3nc4ccccc4s3)c2O[C@H]1CN(C)Cc1ccc(-c2ccccc2)cc1
- AC50 [12]: 3.59 µM (active)

SMILES: Cc1ccc(O)c(/C=N/c2ccc3[nH]ncc3c2)c1
- IC50 [13]: 27.7 µM (active)
- IC50 [5]: > 50 µM (not active)

SMILES: c1cncc(-c2nccs2)c1
- IC50 [2]: > 100 µM (not active)
- IC50 [3]: > 100 µM (inactive)

SMILES: O=C(O)c1ccc(N2C(=O)CSC2=S)cc1
- EC50 (cells [6]): > 350 µM (not active)
- EC50 (cells [7]): > 350 µM (not active)

SMILES: O=C(c1[nH]nc2c1COc1ccccc1-2)N1CCCC1
- IC50 [2]: > 100 µM (not active)
- IC50 [3]: 0.289 µM (active)
